Assay results reported in PubChem BioAssay AID696 (Sanford-Burnham Center for Chemical Genomics, 2007).
pEC50: −log10 of the molar value.

Target: Alkaline phosphatase, placental type (Homo sapiens) (UniProt P05187)
Assay: activation of human placental alkaline phosphatase – biochemical, luminescence, HTS (AID 696)
Settings: purified PLAP enzyme, luminescent substrate read-out

Sequence of Alkaline phosphatase, placental type (Homo sapiens) (P05187 whole entry, looked up): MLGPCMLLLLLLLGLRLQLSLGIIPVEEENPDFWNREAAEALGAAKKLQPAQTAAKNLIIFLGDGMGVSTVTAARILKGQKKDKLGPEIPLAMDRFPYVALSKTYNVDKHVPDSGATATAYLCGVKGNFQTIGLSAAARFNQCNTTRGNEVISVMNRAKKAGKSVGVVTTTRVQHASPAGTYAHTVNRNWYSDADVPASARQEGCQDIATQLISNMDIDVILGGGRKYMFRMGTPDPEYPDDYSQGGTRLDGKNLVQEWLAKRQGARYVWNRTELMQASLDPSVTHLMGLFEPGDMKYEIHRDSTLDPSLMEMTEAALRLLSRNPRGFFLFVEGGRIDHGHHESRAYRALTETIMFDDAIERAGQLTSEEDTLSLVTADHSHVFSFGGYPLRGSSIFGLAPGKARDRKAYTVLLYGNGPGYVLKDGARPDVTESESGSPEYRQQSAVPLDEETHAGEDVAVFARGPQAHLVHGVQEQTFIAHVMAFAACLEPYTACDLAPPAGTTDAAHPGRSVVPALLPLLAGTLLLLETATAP

| Compound | pEC50 |
| --- | --- |
| CC1Cc2ccccc2N1C(=O)CSc1nnc(Cc2ccccc2)n1CCc1ccccc1 (centres undefined) | 4.06 |
| O=[N+]([O-])c1ccc(Sc2nnnn2-c2ccccc2)c(Cl)c1 | 4.58 |
| CCCn1c(CNc2ccc(Br)cc2)nc2ccccc21 | 4.31 |
| COc1cccc(NCc2cc3c(C(C)(C)C)nn(-c4ccccc4)c3[nH]c2=O)c1 | 4.11 |
| COc1cccc(NC(=O)c2nnn(CCc3ccccc3)c2N)c1 | 4.08 |
| CCCn1c(C(O)c2ccc3c(c2)OCO3)nc2ccccc21 (centres undefined) | 4.75 |
| O=C(Cn1c(=O)n(-c2ccccc2)c(=O)c2sccc21)N1CCCC1 | 5.58 |
| CCCCN1CCc2c1nc1ccc(Br)cc1c2N | 4.11 |
| CCCCOC(=O)C(C)Nc1n[nH]c(=S)[nH]c1=O (centres undefined) | 4.67 |
| O=C(Oc1ccc2c(=O)c(Oc3ccc4ccccc4c3)coc2c1)c1cncc(Br)c1 | 4.13 |
| COc1ccc(-c2nnc(-c3ccc(Br)o3)o2)cc1OC | 4.59 |
| c1ccc(Nc2cccc(Nc3ccccc3)n2)cc1 | 4.43 |
| Cc1ccc(-n2c([O-])nc(-[n+]3ccccc3)c2C=O)cc1 | 5.04 |
| CCOc1ccc(CNC(=S)N/N=C\c2ccc([N+](=O)[O-])cc2)cc1 | 4.96 |
| Cc1cc(Nc2ccc(Cl)cc2)n(-c2cccc(Cl)c2)n1 | 4.29 |
| COC(=O)c1cn[nH]c1NC(=S)Nc1ccccc1C | 4.68 |
| CC(C)n1c(-c2ccc(N(C)C)cc2)nc2ccccc21 | 5.07 |
| Cc1nn(C)cc1/C=N\NC(=O)c1ccc2c(c1)c(C)c(C)n2Cc1ccccc1 | 4.14 |
| CCn1c(SCC(=O)c2ccc(O)c(O)c2)nnc1-c1ccccc1 | 4.10 |
| Cc1ccc(C2CC(c3ccc(Cl)cc3)=NNC2=O)cc1 (centres undefined) | 6.69 |

| Compound | pEC50 |
| --- | --- |
| CC(C)N=c1scc(-c2ccco2)n1/N=C/c1ccc(O)c(O)c1 | 4.32 |
| O=C1Nc2ccc(Br)cc2/C1=N/N=C/C1=C(N2CCOCC2)C(=C\c2ccccc2)/CC1 | 4.42 |
| N#CC(c1ccc(F)cc1)c1ccc(C(=O)c2ccc(F)cc2)cc1 (centres undefined) | 4.64 |
| Cc1ccc(C)c(NC(=S)NC(NC(=O)Cc2cccc3ccccc23)C(Cl)(Cl)Cl)c1 (centres undefined) | 4.20 |
| O=P(CCCCCCCCCP(=O)(c1ccccc1)c1ccccc1)(c1ccccc1)c1ccccc1 | 4.00 |
| O=C(NC1(C(F)(F)F)Oc2ccc(Cl)cc2O1)N1CCC2(CC1)OCCO2 (centres undefined) | 4.21 |
| COc1ccc(-c2cc(NCc3ccccn3)n3ncnc3n2)cc1 | 4.18 |
| Cc1cccc(N2C(=O)NC(=O)/C(=C\c3cnn(-c4ccccc4)c3)C2=O)c1 | 5.96 |
| Cc1ccc(/C=N/NC(=O)c2c[nH]c3ccccc23)o1 | 4.23 |
| c1ccc(CSCCc2ccncc2)cc1 | 4.17 |
| CC1CC(C)CN(CC(C)(C)NS(=O)(=O)c2ccc(Cl)cc2)C1 (centres undefined) | 4.61 |
| O=C(Nc1ccccc1)NC1(C(=O)N2CCN(C(=O)c3ccco3)CC2)CCCCC1 | 4.45 |
| CCOC(=O)c1c(C)[nH]c(C(=O)CSc2nnc(CC(C)c3ccccc3)o2)c1C (centres undefined) | 4.11 |
| O=C(C[n+]1cc2ccccc2c2ccccc21)c1ccccc1 | 4.03 |
| Clc1ccc(-c2cc(CSc3cccc(Cl)c3)on2)cc1 | 4.16 |
| N#CC(c1ccc(F)cc1)c1ccc(C(=O)c2ccccc2)cc1 (centres undefined) | 5.10 |
| O=C(Cn1c(=O)oc2cc(S(=O)(=O)N3CCCC3)ccc21)NCc1ccc(F)cc1 | 6.34 |
| O=P(/C(=N/O)N1CCCCC1)(N1CCOCC1)N1CCOCC1 | 4.26 |
| CCC(=O)Nc1ccccc1C(=O)OCC(=O)c1ccccc1 | 4.41 |
